Measurements as given in patent US6545039B1 (Viatris GmbH & Co. KG, priority 1999, dated 2003).

Test: Tolerability of intravenous infusion rates in healthy subjects
Assay type: in vivo, human
Conditions: i.v., all infusion rates used (100, 200, 600 mg/min)
From the text: The following results were obtained here. 1.

For `O=C(O)CCCCC1CCSS1` (stereo not drawn) [α-lipoic acid], the “tolerability of infusion rate” value was “excellently tolerated”.
